# Assay results taken from patent US12310365B2 (priority 2009, dated 2025).
# Tests used:
# Type in all cases: in vivo
# [1] = test system: Botrytis cinerea (Diethofencarb-resistant strain); experiment: Tomato gray mold preventive test (Diethofencarb-resistant strain)
# [2] = test system: Pseudoperonospora cubensis; experiment: Cucumber downy mildew preventive test; details: for pest or weed control at 20 ppm: treatment concentration 20 ppm
# [3] = test system: Pseudoperonospora cubensis; experiment: Cucumber downy mildew curative test; details: single ingredient; for pest or weed control at 20 ppm: treatment concentration 20 ppm
# Sphaerotheca fuliginea [4] = experiment: Cucumber powdery mildew preventive test; details: Podosphaera fuliginea, topical, 168 h; for pest or weed control at 20 ppm: treatment concentration 20 ppm
# Sphaerotheca fuliginea [5] = experiment: Cucumber powdery mildew curative test; details: Podosphaera fuliginea, topical, 168 h; for pest or weed control at 20 ppm: treatment concentration 20 ppm
# [6] = Botrytis cinerea, topical, 48 h, read-out: Control value
# [7] = treatment concentration 160 ppm
# [8] = treatment concentration 1.7 ppm
# [9] = Pseudoperonospora cubensis, topical, 168 h, treatment concentration 10 ppm
# [10] = Pseudoperonospora cubensis, topical, 168 h
# [11] = treatment concentration 55.3 ppm
# [12] = treatment concentration 7.5 ppm
# [13] = Pseudoperonospora cubensis, topical, 168 h, treatment concentration 9.4 ppm
molecule,measurement,setting,value
Iminoctadine trialbesilate,Control value,[1]; treatment concentration 40 ppm,67
CC12CC1(C)C(=O)N(c1cc(Cl)cc(Cl)c1)C2=O (stereo not shown) [Procymidone],pest or weed control at 50 ppm,[1]; [6],17%
Fosetyl-aluminium,Control value,[2]; [7],60
same,Control value,[3]; [7],67
Clc1ccc(CSC(Cn2cncn2)=Nc2ccc(Cl)cc2Cl)cc1 [Imibenconazole],pest or weed control at 15 ppm,Sphaerotheca fuliginea [4]; treatment concentration 15 ppm,33%
same,pest or weed control at 15 ppm,Sphaerotheca fuliginea [5]; treatment concentration 15 ppm,75%
CC(C)CC(C)c1sccc1NC(=O)c1cn(C)nc1C(F)(F)F (stereo not shown) [Penthiopyrad],pest or weed control at 10 ppm,[1]; [6],33%
OC(c1ccc(Cl)cc1)(c1cncnc1)c1ccccc1Cl (stereo not shown) [Fenarimol],pest or weed control at 4 ppm,Sphaerotheca fuliginea [4]; treatment concentration 4 ppm,67%
same,pest or weed control at 4 ppm,Sphaerotheca fuliginea [5]; treatment concentration 4 ppm,78%
CC(C)NC(=O)N1CC(=O)N(c2cc(Cl)cc(Cl)c2)C1=O [Iprodione],pest or weed control at 50 ppm,[1]; [6],67%
O=C(Cc1ccccc1)N/C(=N\OCC1CC1)c1c(C(F)(F)F)ccc(F)c1F [Cyflufenamid],pest or weed control at 1.7 ppm,Sphaerotheca fuliginea [4]; [8],33%
same,pest or weed control at 1.7 ppm,Sphaerotheca fuliginea [5]; [8],67%
O=C1C2CC=CCC2C(=O)N1SC(Cl)(Cl)Cl (stereo not shown) [Captan],pest or weed control at 133.3 ppm,[1]; [6],33%
O=C(Nc1ccccc1-c1ccc(Cl)cc1)c1cccnc1Cl [Boscalid],pest or weed control at 50 ppm,[1]; [6],17%
CC(C)OC(=O)N[C@H](C(=O)N[C@H](C)c1nc2ccc(F)cc2s1)C(C)C [Benthiavalicarb-isopropyl],pest or weed control at 10 ppm,[2]; [9],40%
same,pest or weed control at 10 ppm,[3]; [9],67%
CCNC(=O)NC(=O)/C(C#N)=N/OC [Cymoxanil],pest or weed control at 20 ppm,[2]; [10],60%
same,pest or weed control at 20 ppm,[3]; [10],67%
C[C@@]1(c2ccc(Oc3ccccc3)cc2)OC(=O)N(Nc2ccccc2)C1=O (racemic) [Famoxadone],pest or weed control at 10 ppm,[2]; [9],0%
same,pest or weed control at 10 ppm,[3]; [9],92%
COCC(=O)N(c1c(C)cccc1C)[C@H](C)C(=O)OC [Metalaxyl M],Control value,[2]; treatment concentration 10 ppm,60
same,Control value,[3]; treatment concentration 10 ppm,83
COC(=O)NC(=S)Nc1ccccc1NC(=S)NC(=O)OC [Thiophanate-methyl],pest or weed control at 70 ppm,[1]; [6],43%
CO/N=C(/C(=O)OC)c1ccccc1COc1ccccc1C [Kresoxim-methyl],pest or weed control at 20 ppm,Sphaerotheca fuliginea [4],17%
same,pest or weed control at 20 ppm,Sphaerotheca fuliginea [5],67%
N#Cc1c[nH]cc1-c1cccc2c1OC(F)(F)O2 [Fludioxonil],pest or weed control at 20 ppm,[1]; [6],67%
CCOc1ccc(NC(=O)OC(C)C)cc1OCC [Diethofencarb],pest or weed control at 12.5 ppm,[1]; [6],0%
[Cu+2].[OH-].[OH-] [cupric hydroxide],Control value,[2]; [11],40
same,Control value,[3]; [11],50
COCC(=O)N(c1c(C)cccc1C)C(C)C(=O)OC (stereo not shown) [Metalaxyl],pest or weed control at 10 ppm,[2]; [9],60%
same,pest or weed control at 10 ppm,[3]; [9],92%
CC#Cc1cc(C)nc(Nc2ccccc2)n1 [Mepanipyrim],pest or weed control at 20 ppm,Sphaerotheca fuliginea [4],0%
same,pest or weed control at 20 ppm,Sphaerotheca fuliginea [5],75%
Mancozeb,Control value,[2]; [12],60
same,Control value,[3]; [12],67
CCCCC(O)(Cn1cncn1)c1ccc(Cl)cc1Cl (stereo not shown) [Hexaconazole],pest or weed control at 2 ppm,Sphaerotheca fuliginea [4]; treatment concentration 2 ppm,17%
same,pest or weed control at 2 ppm,Sphaerotheca fuliginea [5]; treatment concentration 2 ppm,75%
Maneb,Control value,[1]; treatment concentration 177.5 ppm,17
O=[N+]([O-])c1cc(C(F)(F)F)c(Cl)c([N+](=O)[O-])c1Nc1ncc(C(F)(F)F)cc1Cl [Fluazinam],pest or weed control at 20 ppm,[1]; [6],0%
CO/C=C(/C(=O)OC)c1ccccc1Oc1cc(Oc2ccccc2C#N)ncn1 [Azoxystrobin],Control value,[2]; treatment concentration 8 ppm,60
same,Control value,[3]; treatment concentration 8 ppm,92
COc1ccc(C(=CC(=O)N2CCOCC2)c2ccc(Cl)cc2)cc1OC [Dimethomorph],pest or weed control at 20 ppm,[2]; [10],60%
same,pest or weed control at 20 ppm,[3]; [10],50%
CC1(C)COC(C)(CCCc2ccc(Cl)cc2)N1C(=O)n1ccnc1.CC1(C)COC(C)(CCCc2ccc(Cl)cc2)N1C(=O)n1ccnc1.O=C(O)/C=C/C(=O)O (stereo not shown) [Oxpoconazole fumarate],Control value,[1]; treatment concentration 10 ppm,0
Cc1ccc(-c2c(Cl)nc(C#N)n2S(=O)(=O)N(C)C)cc1 [Cyazofamid],pest or weed control at 9.4 ppm,[2]; [13],40%
same,pest or weed control at 9.4 ppm,[3]; [13],67%
CCNc1nc(CC)c(C(=O)NC(C#N)c2cccs2)s1 (stereo not shown) [Ethaboxam],Control value,[2]; treatment concentration 10 ppm,20
same,Control value,[3]; treatment concentration 10 ppm,67
CC1(C(=O)Nc2ccc(O)c(Cl)c2Cl)CCCCC1 [Fenhexamid],pest or weed control at 50 ppm,[1]; [6],50%
